Where “and” joins values, the source holds several entries; their conditions need not be identical. Equal entries are not always repeated. Inconclusive results and toxic doses are left out. Rule as the data show it: active = T/C of 150% or more; inactive = T/C below 125%. Square brackets hold non-standard residues; d marks the D form. Peptide text beside a SMILES is read from it. Sar = CNCC(=O)O
System: L1210 leukemia ip in BDF1 mice, survival T/C
Assay: NCI In Vivo Anticancer Drug Screen. Data for tumor model L1210 Leukemia (intraperitoneal) in B6D2F1 (BDF1) mice
Conditions: endpoint: mean survival time, higher = longer survival
In short: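 Survival endpoint. Drug-treated group vs vehicle group, expressed as T divided by C. Tumor passaged by transplantation.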

[1] = dose: 50.0 mg/kg/injection, schedule: Q01DX009 (ip), vehicle: saline with Tween-80
[2] = dose: 100.0 mg/kg/injection, schedule: Q01DX009 (ip), vehicle: saline with Tween-80
[3] = dose: 200.0 mg/kg/injection, schedule: Q01DX009 (ip), vehicle: saline with Tween-80
[4] = dose: 50.0 mg/kg/injection, schedule: Q01DX001 (ip), vehicle: saline
[5] = dose: 50.0 mg/kg/injection, schedule: Q01DX009 (ip), vehicle: saline
[6] = dose: 100.0 mg/kg/injection, schedule: Q01DX001 (ip), vehicle: saline
[7] = dose: 100.0 mg/kg/injection, schedule: Q04DX003 (ip), vehicle: saline
[8] = dose: 100.0 mg/kg/injection, schedule: Q01DX009 (ip), vehicle: saline
[9] = dose: 200.0 mg/kg/injection, schedule: Q01DX009 (ip), vehicle: saline
[10] = dose: 25.0 mg/kg/injection, schedule: Q04DX002 (ip), vehicle: saline
[11] = dose: 100.0 mg/kg/injection, schedule: Q04DX002 (ip), vehicle: saline
[12] = dose: 200.0 mg/kg/injection, schedule: Q04DX003 (ip), vehicle: saline
[13] = dose: 200.0 mg/kg/injection, schedule: Q01DX001 (ip), vehicle: saline
[14] = dose: 400.0 mg/kg/injection, schedule: Q01DX001 (ip), vehicle: saline
[15] = dose: 100.0 mg/kg/injection, schedule: Q04DX002 (ip), vehicle: Klucel (hydroxypropylcellulose) (HPC)
[16] = dose: 200.0 mg/kg/injection, schedule: Q04DX002 (ip), vehicle: Klucel (hydroxypropylcellulose) (HPC)
[17] = dose: 400.0 mg/kg/injection, schedule: Q04DX002 (ip), vehicle: Klucel (hydroxypropylcellulose) (HPC)

Measured: T/C

COc1cc2c(cc1OC)C1(NCC2)C(=O)Nc2c(Cl)cccc21 (stereo unspecified)
inactive: dose: 30.0 mg/kg/injection, schedule: Q04DX002 (ip), vehicle: saline 124 % of control | dose: 60.0 mg/kg/injection, schedule: Q04DX002 (ip), vehicle: saline 113 % of control | dose: 120.0 mg/kg/injection, schedule: Q04DX002 (ip), vehicle: saline 117 % of control

NS(=O)(=O)c1ccc(N=Cc2ccc3c(c2)OCO3)cc1
inactive: dose: 100.0 mg/kg/injection, schedule: Q01DX009 (ip), vehicle: Klucel (hydroxypropylcellulose) (HPC) 94 % of control | dose: 200.0 mg/kg/injection, schedule: Q01DX009 (ip), vehicle: Klucel (hydroxypropylcellulose) (HPC) 92 % of control | dose: 400.0 mg/kg/injection, schedule: Q01DX009 (ip), vehicle: Klucel (hydroxypropylcellulose) (HPC) 97 % of control

CC1CC=C(/C=N/NC(N)=O)C(C)O1 (stereo unspecified)
inactive: [1] 94 % of control | [2] 88 % of control | [3] 94 % of control

CCN(CCCl)CCCNCc1c2ccccc2c(C)c2ccccc12
inactive: dose: 5.0 mg/kg/injection, schedule: Q01DX005 (ip), vehicle: saline 116 % of control

CN(C)CCC(=O)c1ccccc1
inactive: dose: 12.5 mg/kg/injection, schedule: Q01DX009 (ip), vehicle: saline 101 % of control | dose: 25.0 mg/kg/injection, schedule: Q01DX009 (ip), vehicle: saline 101 % of control | dose: 25.0 mg/kg/injection, schedule: Q04DX003 (ip), vehicle: saline 105 % of control | [4] 103 % of control | [5] 98 % of control | dose: 50.0 mg/kg/injection, schedule: Q04DX003 (ip), vehicle: saline 101 % of control | [6] 103 % of control | [7] 100 % of control

CC(C)=CCCC(C)CCOc1ccc(C(C)C)cc1 (stereo unspecified)
inactive: dose: 100.0 mg/kg/injection, schedule: Q04DX002 (ip), vehicle: saline with Tween-80 108 % of control | dose: 200.0 mg/kg/injection, schedule: Q04DX002 (ip), vehicle: saline with Tween-80 96 % of control | dose: 400.0 mg/kg/injection, schedule: Q04DX002 (ip), vehicle: saline with Tween-80 103 % of control

OC(c1ccc(Cl)cc1)(c1ccc(Cl)cc1)C(F)(Cl)Cl
inactive: dose: 26.6 mg/kg/injection, schedule: Q01DX Z (ip), vehicle: methylcellulose (MC) 87 % of control | dose: 40.0 mg/kg/injection, schedule: Q01DX Z (ip), vehicle: methylcellulose (MC) 107 % of control | dose: 60.0 mg/kg/injection, schedule: Q01DX Z (ip), vehicle: methylcellulose (MC) 96 % of control

O=C(O)/C=C/c1cc(O)c(O)c(O)c1
inactive: dose: 25.0 mg/kg/injection, schedule: Q01DX001 (ip), vehicle: other 100 % of control | dose: 50.0 mg/kg/injection, schedule: Q01DX001 (ip), vehicle: other 99 % of control | dose: 100.0 mg/kg/injection, schedule: Q01DX001 (ip), vehicle: other 94 % of control

CN1C2CCC1CNC2
inactive: [8] 101 % of control | [9] 96 % of control | dose: 400.0 mg/kg/injection, schedule: Q01DX009 (ip), vehicle: saline 90 % of control

O=CC(O)C(O)C(O)C(O)CO (stereo unspecified) (tested in a mixture with another compound)
inactive: dose: 6.25 mg/kg/injection, schedule: Q04DX002 (ip), vehicle: saline 95 % of control | dose: 12.5 mg/kg/injection, schedule: Q04DX002 (ip), vehicle: saline 100 % of control | [10] 103 % of control and 91 % of control | dose: 75.0 mg/kg/injection, schedule: Q04DX002 (ip), vehicle: saline 95 % of control | [11] 103 % of control | dose: 150.0 mg/kg/injection, schedule: Q04DX002 (ip), vehicle: saline 95 % of control | dose: 200.0 mg/kg/injection, schedule: Q04DX002 (ip), vehicle: saline 99 % of control | dose: 300.0 mg/kg/injection, schedule: Q04DX002 (ip), vehicle: saline 106 % of control | dose: 400.0 mg/kg/injection, schedule: Q04DX002 (ip), vehicle: saline 102 % of control

Nc1nc(-c2ccccc2)cc(-c2ccccc2)c1-c1ccccc1
inactive: [1] 108 % of control | [2] 112 % of control | [3] 104 % of control

CCCOP(OCCC)OCCC
inactive: [5] 93 % of control | [8] 101 % of control | [7] 103 % of control | [9] 98 % of control | [12] 95 % of control

Cc1cc(SCc2ccccc2)cc(C)[o+]1
inactive: [6] 98 % of control | [13] 98 % of control | [14] 107 % of control

Cc1nonc1-c1ccc2c(c1)OCO2
inactive: dose: 100.0 mg/kg/injection, schedule: Q04DX003 (ip), vehicle: Klucel (hydroxypropylcellulose) (HPC) 103 % of control | dose: 200.0 mg/kg/injection, schedule: Q04DX003 (ip), vehicle: Klucel (hydroxypropylcellulose) (HPC) 97 % of control | dose: 400.0 mg/kg/injection, schedule: Q04DX003 (ip), vehicle: Klucel (hydroxypropylcellulose) (HPC) 101 % of control

O=C1NC(C(=O)O)CC1O (stereo unspecified)
inactive: [4] 100 % of control | [6] 95 % of control and 97 % of control | [13] 98 % of control and 88 % of control | [14] 97 % of control

CN(CC(=O)O)C(=O)CN (H-Gly-[Sar]-OH)
inactive: [10] 113 % of control | dose: 50.0 mg/kg/injection, schedule: Q04DX002 (ip), vehicle: saline 97 % of control | [11] 103 % of control

OCC1N=C(c2ccccc2)OC1c1ccccc1 (stereo unspecified)
inactive: [1] 94 % of control | [2] 102 % of control | [3] 96 % of control

CC(C)CN1C(c2ccccc2)=CN(Cc2ccccc2)C=C1c1ccccc1
inactive: [15] 100 % of control | [16] 120 % of control | [17] 113 % of control

O=C(CCCC(=O)NNC(=S)NC1CCCCC1)NNC(=S)NC1CCCCC1
inactive: [4] 96 % of control | [6] 96 % of control | [13] 93 % of control

CCCNS(=O)(=O)c1ccc(C(N)=S)cc1
inactive: dose: 100.0 mg/kg/injection, schedule: Q01DX001 (ip), vehicle: Klucel (hydroxypropylcellulose) (HPC) 103 % of control | dose: 200.0 mg/kg/injection, schedule: Q01DX001 (ip), vehicle: Klucel (hydroxypropylcellulose) (HPC) 108 % of control | dose: 400.0 mg/kg/injection, schedule: Q01DX001 (ip), vehicle: Klucel (hydroxypropylcellulose) (HPC) 98 % of control

CCOC(=O)COc1cc(Cl)ccn1
inactive: [15] 110 % of control | [16] 104 % of control | [17] 104 % of control

Brc1cccc2c(I)cccc12
inactive: dose: 100.0 mg/kg/injection, schedule: Q01DX001 (ip), vehicle: carboxymethylcellulose (CMC) 95 % of control | dose: 200.0 mg/kg/injection, schedule: Q01DX001 (ip), vehicle: carboxymethylcellulose (CMC) 98 % of control | dose: 400.0 mg/kg/injection, schedule: Q01DX001 (ip), vehicle: carboxymethylcellulose (CMC) 92 % of control

Cc1ccccc1NC(=O)Oc1ccc(Cl)cc1Cl
inactive: dose: 100.0 mg/kg/injection, schedule: Q04DX002 (ip), vehicle: gum acacia 107 % of control | dose: 200.0 mg/kg/injection, schedule: Q04DX002 (ip), vehicle: gum acacia 100 % of control | dose: 400.0 mg/kg/injection, schedule: Q04DX002 (ip), vehicle: gum acacia 104 % of control

CC(/C=C/c1ccccc1)=N\O
inactive: dose: 100.0 mg/kg/injection, schedule: Q01DX009 (ip), vehicle: saline sonified 91 % of control | dose: 200.0 mg/kg/injection, schedule: Q01DX009 (ip), vehicle: saline sonified 94 % of control | dose: 400.0 mg/kg/injection, schedule: Q01DX009 (ip), vehicle: saline sonified 100 % of control

O=S(=O)(O)C(O)c1ccc(C(O)S(=O)(=O)O)cc1 (stereo unspecified)
inactive: [6] 107 % of control | [7] 92 % of control | [13] 107 % of control | [12] 102 % of control | [14] 105 % of control | dose: 400.0 mg/kg/injection, schedule: Q04DX003 (ip), vehicle: saline 95 % of control

ClC1C(Cl)C(Cl)C(Cl)C(Cl)C1Cl (stereo unspecified)
inactive: [5] 103 % of control | [8] 103 % of control | [9] 108 % of control

COc1ccc2c(C)c(C)[nH]c2c1
inactive: [4] 101 % of control | [6] 109 % of control | [13] 115 % of control | [14] 104 % of control

Cc1c(-c2ccccc2)oc2c(C(=O)OCCN3CCCCC3)cccc2c1=O
inactive: [6] 102 % of control | [13] 102 % of control | [14] 96 % of control

CCOP(=O)(OCC)Oc1ccc(S(C)=O)cc1 (stereo unspecified)
inactive: dose: 5.0 mg/kg/injection, schedule: Q01DX001 (ip), vehicle: saline 114 % of control

— PubChem BioAssay AID248 (DTP/NCI, 2004)
